From the supplement of paper PMC10307832

Legend:
Assay in all cases: relative viability (nuclei count vs DMSO), 5 days (fraction); higher = more cells survive
[1] = compound: CCC1=CN=CN=C1N2CCN(CC2)CC3=NC4=C(N3)C=C(C=C4)C(F)(F)F + CC(C)C[C@H](NC(=O)[C@H](Cc1ccccc1)NC(=O)c1cnccn1)B(O)O [Bortezomib] (partner 0.002 µM)
In short: (§1)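 A single step with final 0.05% Triton X-100, 1% formaldehyde and 1 ug/ml Hoechst fixed the cells and stained nuclei 5 days after treatment. Lung cancer cell lines in 1536-well plates had been treated by pin tool the day after seeding with one drug alone or a fixed anchor-drug dose plus five library-drug doses (not always all listed) in √10 steps, and nuclei were counted on 4× images. Relative viability is the ratio of nuclei in treated wells to nuclei in vehicle wells, taken as the median of duplicate plates.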

[2] = compound: CCn1c(-c2nonc2N)nc2cnc(Oc3cccc(NC(=O)c4ccc(OCCN5CCOCC5)cc4)c3)cc21 + Cc1nc(Nc2ncc(C(=O)Nc3c(C)cccc3Cl)s2)cc(N2CCN(CCO)CC2)n1 [Dasatinib] (partner 0.075 µM)
In short: as §1

[3] = compound: CCn1c(-c2nonc2N)nc2cnc(Oc3cccc(NC(=O)c4ccc(OCCN5CCOCC5)cc4)c3)cc21 + C[C@@H](Oc1cc(-c2cnn(C3CCNCC3)c2)cnc1N)c1c(Cl)ccc(F)c1Cl [Crizotinib] (partner 1 µM)
In short: as §1

[4] = compound: CCn1c(-c2nonc2N)nc2cnc(Oc3cccc(NC(=O)c4ccc(OCCN5CCOCC5)cc4)c3)cc21 + CC(C)C[C@H](NC(=O)[C@H](Cc1ccccc1)NC(=O)c1cnccn1)B(O)O [Bortezomib] (partner 0.002 µM)
In short: as §1

| Cell Line | relative viability ([1]; first compound 0.04 µM) | relative viability ([1]; first compound 0.1265 µM) | relative viability ([1]; first compound 0.4 µM) | relative viability ([1]; first compound 1.265 µM) | relative viability ([1]; first compound 4 µM) | relative viability ([2]; first compound 0.04 µM) | relative viability ([2]; first compound 0.1265 µM) | relative viability ([2]; first compound 0.4 µM) | relative viability ([2]; first compound 1.265 µM) | relative viability ([2]; first compound 4 µM) | relative viability ([3]; first compound 0.04 µM) | relative viability ([3]; first compound 0.1265 µM) | relative viability ([3]; first compound 0.4 µM) | relative viability ([3]; first compound 1.265 µM) | relative viability ([3]; first compound 4 µM) | relative viability ([4]; first compound 0.04 µM) | relative viability ([4]; first compound 0.1265 µM) | relative viability ([4]; first compound 0.4 µM) | relative viability ([4]; first compound 1.265 µM) | relative viability ([4]; first compound 4 µM) |
| --- | --- | --- | --- | --- | --- | --- | --- | --- | --- | --- | --- | --- | --- | --- | --- | --- | --- | --- | --- | --- |
| NCI-H520 | 0.699 | 0.48 | 0.642 | 0.534 | 0.472 | 0.166 | 0.174 | 0.166 | 0.163 | 0.139 | 0.957 | 0.784 | 0.751 | 0.565 | 0.371 | 0.749 | 0.614 | 0.537 | 0.349 | 0.239 |
| LOU-NH91 | 0.408 | 0.543 | 0.507 | 0.523 | 0.504 | 0.524 | 0.454 | 0.312 | 0.273 | 0.304 | 0.756 | 0.534 | 0.637 | 0.488 | 0.497 | 0.561 | 0.526 | 0.439 | 0.343 | 0.377 |
| NCI-H1651 | 0.876 | 0.926 | 0.953 | 0.851 | 0.96 | 0.499 | 0.369 | 0.229 | 0.247 | 0.267 | 0.871 | 0.98 | 0.822 | 0.667 | 0.907 | 0.9 | 0.94 | 0.824 | 0.496 | 0.86 |
| NCI-H460 | 1.11 | 1.1 | 0.977 | 1.06 | 0.951 | 0.467 | 0.288 | 0.154 | 0.136 | 0.112 | 0.962 | 0.697 | 0.597 | 0.276 | 0.0863 | 1.09 | 1.03 | 0.716 | 0.5 | 0.26 |
